Source: paper PMC10545747, “Development of cyclopeptide inhibitors of cGAS targeting protein-DNA interaction and phase separation” (Nature Communications, 2023)
“And” between values parts separate entries of the source, which are not always exact repeats. Equal values may be shown once. Square brackets hold non-standard residues; d marks the D form. Peptide text beside a SMILES is read from it.

Assays:
Hela cells = experiment: Immunofluorescence of IRF3 and p-IRF3 after HSV-1; type: cell-based, human
Procedure: Hela cells were treated as described for the indicated time and then fixed with 4% paraformaldehyde for 25 min, permeabilized with 0.25% Triton X-100 for 10 min, and blocked in 1% BSA for 1 h at 37 °C. Then, cells were incubated with indicated primary antibodies overnight at 4 °C, and followed by incubating with donkey anti-rabbit IgG Alexa Fluor 488-labeled secondary antibodies (Abcam, Cat# ab150073, 1:200) for 1 h at 37 °C. The nuclei were counterstained with DAPI (Sigma-Aldrich) before the images were acquired using a Nikon A1R+ confocal microscope.

HSV-1-infected WT mice = experiment: HSV-1 infection of WT mice (serum ELISA, brain qPCR, IHC); type: in vivo, mouse; parameters: brain HSV-1 mRNA, qPCR, Fig. 6d / brain HSV-1(UL5) mRNA, qPCR, Fig. 6d: unit not given here
Procedure: Fig. 6 XQ2B attenuates the host innate antiviral response in vivo. a Chemical structure of XQ2 and XQ2B. b, c WT mice (n = 7) were injected intravenously with DMSO or XQ2B (10 mg/kg) for 3 h, and then administrated intravenously with HSV-1 at 1 × 10^7 pfu per mouse for 6 h. Serum from mice was collected for ELISA analysis of the levels of IFN-β (b) and CXCL10 (c). p = 0.0013 (b); p = 0.0175 (c). d Brains from mice (n = 6) in (b, c) were collected for qPCR analysis of the induction of HSV-1 and HSV-1(UL5) mRNA. p = 0.0287 (HSV-1); p = 0.0136 (HSV1-UL5). e Brains from mice in (b, c) were collected for immunohistochemistry (IHC) analysis with an anti-HSV-1 antibody. Tissue sections were visualized using microscopy. Scale bar, 25 μm. Data are representative of two independent experiments in (b–e). […] Source data are provided as a Source Data file.
The indicated cells were stimulated with either ISD (Sangon Biotech), HSV-1 (Provided by Dr. Zhengfan Jiang), HSV60mer (Sangon Biotech), SATE-cddA[70], 2’3’-cGAMP (Invivogen, Cat# tlrl-nacga23-1), ADU-S100 (MedChemExpress, Cat# HY-12885A) or Poly(I:C) (Invivogen, Cat# tlrl-pic) after XQ2 or XQ2B treatment. Total RNA was isolated from indicated cells that incubated with the drugs for indicated time or mice tissues by using NucleoZOL reagent (MACHEREY-NAGEL) according to the manufacturer’s instructions. The quantifications of mRNA levels were carried out by real-time PCR using a PerfectStart® Uni RT&qPCR Kit (TransGen Biotech) on the QuantStudio 5 qPCR machine (Applied Biosystems). Samples were carried out in triplicate and the target CT values were normalized to GAPDH CT values. Primers of qPCR used in this study can be found in Supplementary Table S2.
THP1 cells were seeded into 96-well plates, and cell culture supernatants were collected and analyzed by ELISA kits for human IFNβ levels (R&D Systems, Cat# DY814-05) and human CXCL10 levels (R&D Systems, Cat# DY266-05) according to the manufacturer’s instructions. Mice serum was collected and analyzed by ELISA kits for mouse IFNβ levels (R&D Systems, Cat# DY8234-05) and mouse CXCL10 levels (R&D Systems, Cat# DY466-05) according to the manufacturer’s protocols.
Tissues were resected and fixed successively in 4% paraformaldehyde, and embedded in paraffin according to the standard procedure, and then sectioned into 10-μm slices and placed on positively charged microscope slides. Sections of the brain were subjected to immunohistochemical (IHC) staining with an anti-HSV-1 antibody (Abcam, 1:100) and HRP-conjugated anti-rabbit IgG antibody (Cell Signaling, Cat# 7074, 1:200) according to standard procedures. Sections of the heart, stomach, tongue, kidney and muscle were stained with hematoxylin and eosin. Tissue sections were visualized using an Olympus IX73 microscope (20× Objective).

[1] = XQ2B 10 mg/kg i.v., individual mice

CC(C)C[C@@H]1NC(=O)[C@H](CCCNC(=N)N)NC(=O)[C@H](C(C)C)NC(=O)[C@@H]2CCCN2C(=O)[C@@H](Cc2ccccc2)NC(=O)[C@H](CC(C)C)NC(=O)[C@H](CCCNC(=N)N)NC(=O)[C@H](C(C)C)NC(=O)[C@H](C)NC(=O)[C@@H](Cc2ccccc2)NC1=O [XQ2, Cyclo (LfAVRLfPVR)] (cyclo(L[dF]AVRL[dF]PVR))
quantification of cells with nuclear IRF3, Fig. 2f (Hela cells; HSV-1 6 h, 10 μM): 5.1642 and 6.6102 and 7.0558 | quantification of cells with p-IRF3, Fig. 2g (Hela cells; HSV-1 6 h, 10 μM): 0.5674 and 0.8706 and 1.039 | nuclear translocation and phosphorylation of IRF-3, immunofluorescence (Hela cells; HSV-1, 10 μM): significantly inhibited the nuclear translocation and phosphorylation of IRF-3 triggered by HSV-1

CC(C)C[C@@H]1NC(=O)[C@H](CCCNC(=N)N)NC(=O)[C@H](C(C)C)NC(=O)[C@@H]2CCCN2C(=O)[C@@H](Cc2ccccc2)NC(=O)[C@H](CC(C)C)NC(=O)[C@H](CCCNC(=N)N)NC(=O)[C@H]([C@@H](C)O)NC(=O)[C@H](C)NC(=O)[C@@H](Cc2ccccc2)NC1=O [XQ2B] (cyclo([dF]ATRL[dF]PVRL))
production of IFN-β and CXCL10 upon HSV-1 infection in mice (HSV-1-infected WT mice; 10 mg/kg intravenous): significantly impaired the production of IFN-β and CXCL10 upon HSV-1 infection in mice | virus infection in brain tissues of mice (HSV-1-infected WT mice; 10 mg/kg intravenous): promoted virus infection in the brain tissues of mice | serum IFN-β, ELISA, Fig. 6b (HSV-1-infected WT mice; XQ2B 10 mg/kg i.v. 3 h before HSV-1 1 × 10^7 pfu i.v., 6 h, individual mice): 234.609 and 247.685 and 151.05 and 229.558 and 128.472 and 521.967 and 514.758 | serum CXCL10, ELISA, Fig. 6c (HSV-1-infected WT mice; XQ2B 10 mg/kg i.v., HSV-1 6 h, individual mice): 2266.42 and 1272.19 and 1516.42 and 1969.73 and 1635.92 and 1666.83 and 2034.41 | brain HSV-1(UL5) mRNA, qPCR, Fig. 6d (HSV-1-infected WT mice; [1]): 2.362 and 11.4426 and 5.671 and 29.1839 and 18.1733 and 12.9008 | brain HSV-1 mRNA, qPCR, Fig. 6d (HSV-1-infected WT mice; [1]): 4.055 and 17.5547 and 15.5667 and 41.0988 and 9.75 and 4.86
